Measurements as given in patent publication US12312332B2 (Merck Sharp & Dohme LLC., priority 2019, dated 2025).

Target: T1, human OX2R (Homo sapiens, UniProt O43614)
T1 construct: expressed in transfected cells; host or cells: Chinese hamster ovary (CHO) cells, kept under G418 selection
T1 sequence (O43614 1-444): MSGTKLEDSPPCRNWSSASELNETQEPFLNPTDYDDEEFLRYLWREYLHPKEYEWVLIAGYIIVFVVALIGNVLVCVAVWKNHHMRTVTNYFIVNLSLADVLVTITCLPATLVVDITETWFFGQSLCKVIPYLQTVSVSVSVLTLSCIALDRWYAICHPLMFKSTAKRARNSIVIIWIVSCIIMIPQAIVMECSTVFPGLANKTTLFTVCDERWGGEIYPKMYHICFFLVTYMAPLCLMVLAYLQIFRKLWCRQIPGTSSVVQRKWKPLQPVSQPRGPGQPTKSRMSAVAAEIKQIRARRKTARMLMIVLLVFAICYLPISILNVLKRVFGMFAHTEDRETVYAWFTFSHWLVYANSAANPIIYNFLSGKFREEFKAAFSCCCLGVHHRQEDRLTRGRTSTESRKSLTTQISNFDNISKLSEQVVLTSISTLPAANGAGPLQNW
Test: IPOne (IP-One) orexin receptor agonist assay in CHO cells expressing human OX2R
Assay type: cell-based
Conditions: for EC50: CHO cells expressing human OX2R, IP-One detection, 2 hours incubation, four parameter logistic fit, read-out: OX2R Potency, EC50; for % max agonist effect (Emax): human OX2R, percentage of sample raw value/mean max effect (reference compound at 1 uM with 100% activity)
Text: The utility of the compounds in accordance with the present invention as orexin receptor OX1R and/or OX2R agonists may be readily determined without undue experimentation by methodology well known in the art. Both the OX1R and/or OX2R G-coupled protein receptors (GPCRs) couple through the Gaq signaling pathway, which ultimately promotes calcium mobilization via inositol triphosphate (IP3) production. […] The utility of the compounds in accordance with the present invention as orexin receptor OX1R and/or OX2R agonists may be determined utilizing this assay.
In a typical experiment, the OX1 and OX2 receptor agonist activity is determined in accordance with the following general experimental method. Chinese hamster ovary (CHO) cells expressing human OX1R and/or the human OX2R were grown in Iscove's modified DMEM containing glutaMAX™, 1% G418, 100 U/mL penicillin, 100 μg/mL streptomycin and 10% heat-inactivated qualified fetal bovine serum (FBS). […] During this incubation, IP-one detection reagents were prepared (38:1:1 lysis buffer:D2:AB-cryptate reagents).
For each compound, data were fit to a four parameter logistic fit (ActivityBase software) and the EC50 was reported as the inflection point of the resulting curve. Percent effect for each test compound was determined as the percentage of sample raw value/mean max effect, where the mean max effect was derived from the mean raw value of 32 control wells per assay plate (using Orexin A (cat #003-30) at 1 μM for human OX1R and a reference compound at 1 uM with 100% activity previously established by comparison to Orexin A for human OX2R). The intrinsic orexin receptor agonist activity of a compound which may be used in the present invention may be determined by these assays.

Structure (SMILES): CS(=O)(=O)N[C@H]1CCN(c2cccnc2)[C@H]1CO[C@H]1CC[C@@H](c2ccccc2)CC1 [Example 20, N-((2R,3S)-2-((((CIS)-4-phenylcyclohexyl)oxy)methyl)-1-(pyridin-3-yl)pyrrolidin-3-yl)methanesulfonamide]
- EC50: 20.4 nM
- % max agonist effect (Emax): 101.0%

Structure (SMILES): CS(=O)(=O)N[C@H]1CCN(c2ccc(F)c(C(F)F)c2)[C@H]1CO[C@H]1CC[C@@H](c2ccccc2)CC1 [Example 21, N-((2R,3S)-1-(3-(difluoromethyl)-4-fluorophenyl)-2-((((CIS)-4-phenylcyclohexyl)oxy)methyl)pyrrolidin-3-yl)methanesulfonamide]
- EC50: 8490 nM
- % max agonist effect (Emax): 57.0%

Structure (SMILES): CS(=O)(=O)N[C@H]1CCN(c2ccc(C(F)F)cc2F)[C@H]1CO[C@H]1CC[C@@H](c2ccccc2)CC1 [Example 22, N-((2R,3S)-1-(4-(difluoromethyl)-2-fluorophenyl)-2-((((CIS)-4-phenylcyclohexyl)oxy)methyl)pyrrolidin-3-yl)methanesulfonamide]
- EC50: > 10000 nM
- % max agonist effect (Emax): 57.5%

Structure (SMILES): CS(=O)(=O)N[C@H]1CCN(c2ccc(=O)n(C(F)F)c2)[C@H]1CO[C@H]1CC[C@@H](c2ccccc2)CC1 [Example 23, N-((2R,3S)-1-(1-(difluoromethyl)-6-oxo-1,6-dihydropyridin-3-yl)-2-((((CIS)-4-phenylcyclohexyl)-oxy)methyl)pyrrolidin-3 - yl)methanesulfonamide]
- EC50: 4640 nM
- % max agonist effect (Emax): 81.2%

Structure (SMILES): CS(=O)(=O)N[C@H]1CCN(c2ccc(C(F)F)nc2)[C@H]1CO[C@H]1CC[C@@H](c2ccccc2)CC1 [Example 24, N-((2R,3S)-1-(6-(difluoromethyl)pyridin-3-yl)-2-((((CIS)-4-phenylcyclohexyl)-oxy)methyl)pyrrolidin-3-yl)methanesulfonamide]
- EC50: 50 nM
- % max agonist effect (Emax): 100.7%

Structure (SMILES): CS(=O)(=O)N[C@H]1CCN(c2ccnc(C#N)c2)[C@H]1CO[C@H]1CC[C@@H](c2ccccc2)CC1 [Example 25, N-((2R,3S)-1-(2-cyanopyridin-4-yl)-2-((((CIS)-4-phenylcyclohexyl)oxy)methyl)pyrrolidin-3-yl)methanesulfonamide]
- EC50: 5770 nM
- % max agonist effect (Emax): 78.6%

Structure (SMILES): CS(=O)(=O)N[C@H]1CCN(c2cncs2)[C@H]1CO[C@H]1CC[C@@H](c2ccccc2)CC1 [Example 26, N-((2R,3S)-2-((((CIS)-4-phenylcyclohexyl)oxy)methyl)-1-(thiazol-5-yl)pyrrolidin-3-yl)methanesulfonamide]
- EC50: 444 nM
- % max agonist effect (Emax): 99.0%

Structure (SMILES): CS(=O)(=O)N[C@H]1CCN(c2nccs2)[C@H]1CO[C@H]1CC[C@@H](c2ccccc2)CC1 [Example 27, N-((2R,3S)-2-((((CIS)-4-phenylcyclohexyl)oxy)methyl)-1-(thiazol-2-yl)pyrrolidin-3-yl)methanesulfonamide]
- EC50: 70.2 nM
- % max agonist effect (Emax): 98.9%

Structure (SMILES): Cn1ccnc1N1CC[C@H](NS(C)(=O)=O)[C@@H]1CO[C@H]1CC[C@@H](c2ccccc2)CC1 [Example 28, N-((2R,3S)-1-(1-methyl-1H-imidazol-2-yl)-2-((((CIS)-4-phenylcyclohexyl)oxy)methyl)pyrrolidin-3-yl)methanesulfonamide]
- EC50: 105 nM
- % max agonist effect (Emax): 100.0%

Structure (SMILES): Cc1cnc(N2CC[C@H](NS(C)(=O)=O)[C@@H]2CO[C@H]2CC[C@@H](c3ccccc3)CC2)n1C [Example 29, N-((2R,3S)-1-(1,5-dimethyl-1H-imidazol-2-yl)-2-((((CIS)-4-phenylcyclohexyl)oxy)methyl)pyrrolidin-3-yl)methanesulfonamide]
- EC50: 366 nM
- % max agonist effect (Emax): 100.0%

Structure (SMILES): Cc1c(N2CC[C@H](NS(C)(=O)=O)[C@@H]2CO[C@H]2CC[C@@H](c3ccccc3)CC2)cnn1C [Example 30, N-((2R,3S)-1-(1,5-dimethyl-1H-pyrazol-4-yl)-2-((((CIS)-4-phenylcyclohexyl)oxy)methyl)pyrrolidin-3-yl)methanesulfonamide]
- EC50: 149 nM
- % max agonist effect (Emax): 100.0%

Structure (SMILES): Cn1nnnc1N1CC[C@H](NS(C)(=O)=O)[C@@H]1CO[C@H]1CC[C@@H](c2ccccc2)CC1 [Example 31, N-((2R,3S)-1-(1-methyl-1H-tetrazol-5-yl)-2-((((CIS)-4-phenylcyclohexyl)oxy)methyl)pyrrolidin-3-yl)methanesulfonamide]
- EC50: 2.6 nM
- % max agonist effect (Emax): 101.5%

Structure (SMILES): Cc1ncc(N2CC[C@H](NS(C)(=O)=O)[C@@H]2CO[C@H]2CC[C@@H](c3ccccc3)CC2)n1C [Example 32, N-((2R,3S)-1-(1,2-dimethyl-1H-imidazol-5-yl)-2-((((CIS)-4-phenylcyclohexyl)oxy)methyl)pyrrolidin-3-yl)methanesulfonamide]
- EC50: 37 nM
- % max agonist effect (Emax): 100.2%

Structure (SMILES): CS(=O)(=O)N[C@H]1CCN(c2ncns2)[C@H]1CO[C@H]1CC[C@@H](c2ccccc2)CC1 [Example 33, N-((2R,3S)-2-((((CIS)-4-phenylcyclohexyl)oxy)methyl)-1-(1,2,4-thiadiazol-5-yl)pyrrolidin-3-yl)methanesulfonamide]
- EC50: 146 nM
- % max agonist effect (Emax): 101.0%

Structure (SMILES): CS(=O)(=O)N[C@H]1CCN(c2ccc(C(F)(F)F)nc2)[C@H]1CO[C@H]1CC[C@@H](c2ccccc2)CC1 [Example 34, N-((2R,3S)-2-((((CIS)-4-phenylcyclohexyl)oxy)methyl)-1-(6-(trifluoromethyl)pyridin-3-yl)pyrrolidin-3-yl)methanesulfonamide]
- EC50: 70 nM
- % max agonist effect (Emax): 99.6%

Structure (SMILES): CS(=O)(=O)N[C@H]1CCN(c2ccc(OC(F)F)cn2)[C@H]1CO[C@H]1CC[C@@H](c2ccccc2)CC1 [Example 35, N-((2R,3S)-1-(5-(difluoromethoxy)pyridin-2-yl)-2-((((CIS)-4-phenylcyclohexyl)oxy)methyl)pyrrolidin-3-yl)methanesulfonamide]
- EC50: 176 nM
- % max agonist effect (Emax): 104.3%

Structure (SMILES): CS(=O)(=O)N[C@H]1CCN(c2ccc(OCCF)cc2)[C@H]1CO[C@H]1CC[C@@H](c2ccccc2)CC1 [Example 36, N-((2R,3S)-1-(4-(2-fluoroethoxy)phenyl)-2-((((CIS)-4-phenylcyclohexyl)oxy)methyl)pyrrolidin-3-yl)methanesulfonamide]
- EC50: 2790 nM
- % max agonist effect (Emax): 54.1%

Structure (SMILES): Cc1nnc(N2CC[C@H](NS(C)(=O)=O)[C@@H]2CO[C@H]2CC[C@@H](c3ccccc3)CC2)o1 [Example 37, N-((2R,3 S)-1-(5-methyl-1,3,4-oxadiazol-2-yl)-2-((((CIS)-4-phenylcyclohexyl)oxy)methyl)pyrrolidin-3-yl)methanesulfonamide]
- EC50: 670 nM
- % max agonist effect (Emax): 101.5%

Structure (SMILES): CS(=O)(=O)N[C@H]1CCN(c2ncccn2)[C@H]1CO[C@H]1CC[C@@H](c2ccccc2)CC1 [Example 38, N-((2R,3S)-2-((((CIS)-4-phenylcyclohexyl)oxy)methyl)-1-(pyrimidin-2-yl)pyrrolidin-3-yl)methanesulfonamide]
- EC50: 784 nM
- % max agonist effect (Emax): 97.1%

Structure (SMILES): CS(=O)(=O)N[C@H]1CCN(c2occc2C#N)[C@H]1CO[C@H]1CC[C@@H](c2ccccc2)CC1 [Example 39, N-((2R,3 S)-1-(3-cyanofuran-2-yl)-2-((((CIS)-4-phenylcyclohexyl)oxy)methyl)pyrrolidin-3-yl)methanesulfonamide]
- EC50: 613 nM
- % max agonist effect (Emax): 98.4%

Structure (SMILES): Cn1cc(N2CC[C@H](NS(C)(=O)=O)[C@@H]2CO[C@H]2CC[C@@H](c3ccccc3)CC2)cn1 [Example 40, N-((2R,3S)-1-(1-methyl-1H-pyrazol-4-yl)-2-((((CIS)-4-phenylcyclohexyl)oxy)methyl)pyrrolidin-3-yl)methanesulfonamide]
- EC50: 431 nM
- % max agonist effect (Emax): 98.8%

Structure (SMILES): CS(=O)(=O)N[C@H]1CCN(c2cnc(C(F)(F)F)nc2)[C@H]1CO[C@H]1CC[C@@H](c2ccccc2)CC1 [Example 41]
- EC50: 172 nM
- % max agonist effect (Emax): 100.2%

Structure (SMILES): CS(=O)(=O)N[C@H]1CCN(c2cncnc2)[C@H]1CO[C@H]1CC[C@@H](c2ccccc2)CC1 [Example 42, N-((2R,3S)-2-((((CIS)-4-phenylcyclohexyl)oxy)methyl)-1-(pyrimidin-5-yl)pyrrolidin-3-yl)methanesulfonamide]
- EC50: 134 nM
- % max agonist effect (Emax): 100.9%
